In article PMC11219871, “Epigenetic-based differentiation therapy for Acute Myeloid Leukemia” (Nature Communications, 2024):
Where “and” joins values, the source holds several entries; their conditions need not be identical. Equal entries are not always repeated.

Legend:
BRD3 (BD2) = target: T1, BRD3 (BD2) (Homo sapiens, UniProt Q15059); assay: Epigenetic panel (BPS Bioscience); assay type: binding
T1 construct: purchased BPS Bioscience; Eurofins (HDAC4, 5, 7-11)
Source text: (§1) The selectivity of CM-444 and CM-1758 against other epigenetic targets, including histone demethylase (JMJD2A, JMJD2B, JMJD2C, JMJD2D, JMJD2E, JMJD3, JMJD1A, LSD1, Jarid1A, Jarid1B, Jarid1C, FBXL10, FBXL11, JHDM1D, JMJD1B, PHF8, LSD2 and UTX); histone acetyltransferases (GCN5, P300); histone methyltransferases (G9a, GLP, MLL1, SET7/9, SUV39H1, SUV39H2, PRMT1, PRMT3, PRMT4, PRMT5, PRMT6, PRMT8, PRMT9, NSD1, NSD2, EZH1, EZH2, SETDB1, SETD2, SET8, SUV4-20H1, SMYD2, SMYD3, DOT1L, EZH2 (A677G), EZH2 (A677G), EZH2 (A738T), EZH2 (Y641S), EZH2 (P132S), EZH2 (Y641C), EZH2 (Y641F), EZH2 (Y641H), EZH2 (Y641N)); bromodomains (ATAD2B, ATAD2A, BRD1, BRD9, BPTF/FALZ, CeCR2, BRPF3, BRD3 (BD1 + BD2), BAZ2B, WDR9, TAF1 (BD2), TAF1L (BD2), TAF1L (BD1 + BD2), BRD2 (BD1), BRD2 (BD2), BRD2 (BD1 + BD2), BRD3 (BD1), BRD3 (BD2), BRD4 (BD1), BRD4 (BD2), BRD4 (BD1 + BD2), BRDT (BD1), BRDT (BD1 + BD2), CREBBP, SMARCA2A, SMARCA4/BRG1); DNA methyltranferases (DNMT1, DNMT3A/3L and DNMT3B/3L), and sirtuin histone deacetylases (SIRT1, SIRT2, SIRT3, SIRT5 and SIRT6), were determined by BPS Bioscience (http://www.bpsbioscience.com/index.ph). Binding experiments were performed in duplicate at a concentration of 10 μM.

ATAD2B = target: T2, ATAD2B (Homo sapiens, UniProt Q9ULI0); assay: Epigenetic panel (BPS Bioscience); assay type: binding
T2 construct: purchased BPS Bioscience; Eurofins (HDAC4, 5, 7-11)
T2 sequence (Q9ULI0 whole entry): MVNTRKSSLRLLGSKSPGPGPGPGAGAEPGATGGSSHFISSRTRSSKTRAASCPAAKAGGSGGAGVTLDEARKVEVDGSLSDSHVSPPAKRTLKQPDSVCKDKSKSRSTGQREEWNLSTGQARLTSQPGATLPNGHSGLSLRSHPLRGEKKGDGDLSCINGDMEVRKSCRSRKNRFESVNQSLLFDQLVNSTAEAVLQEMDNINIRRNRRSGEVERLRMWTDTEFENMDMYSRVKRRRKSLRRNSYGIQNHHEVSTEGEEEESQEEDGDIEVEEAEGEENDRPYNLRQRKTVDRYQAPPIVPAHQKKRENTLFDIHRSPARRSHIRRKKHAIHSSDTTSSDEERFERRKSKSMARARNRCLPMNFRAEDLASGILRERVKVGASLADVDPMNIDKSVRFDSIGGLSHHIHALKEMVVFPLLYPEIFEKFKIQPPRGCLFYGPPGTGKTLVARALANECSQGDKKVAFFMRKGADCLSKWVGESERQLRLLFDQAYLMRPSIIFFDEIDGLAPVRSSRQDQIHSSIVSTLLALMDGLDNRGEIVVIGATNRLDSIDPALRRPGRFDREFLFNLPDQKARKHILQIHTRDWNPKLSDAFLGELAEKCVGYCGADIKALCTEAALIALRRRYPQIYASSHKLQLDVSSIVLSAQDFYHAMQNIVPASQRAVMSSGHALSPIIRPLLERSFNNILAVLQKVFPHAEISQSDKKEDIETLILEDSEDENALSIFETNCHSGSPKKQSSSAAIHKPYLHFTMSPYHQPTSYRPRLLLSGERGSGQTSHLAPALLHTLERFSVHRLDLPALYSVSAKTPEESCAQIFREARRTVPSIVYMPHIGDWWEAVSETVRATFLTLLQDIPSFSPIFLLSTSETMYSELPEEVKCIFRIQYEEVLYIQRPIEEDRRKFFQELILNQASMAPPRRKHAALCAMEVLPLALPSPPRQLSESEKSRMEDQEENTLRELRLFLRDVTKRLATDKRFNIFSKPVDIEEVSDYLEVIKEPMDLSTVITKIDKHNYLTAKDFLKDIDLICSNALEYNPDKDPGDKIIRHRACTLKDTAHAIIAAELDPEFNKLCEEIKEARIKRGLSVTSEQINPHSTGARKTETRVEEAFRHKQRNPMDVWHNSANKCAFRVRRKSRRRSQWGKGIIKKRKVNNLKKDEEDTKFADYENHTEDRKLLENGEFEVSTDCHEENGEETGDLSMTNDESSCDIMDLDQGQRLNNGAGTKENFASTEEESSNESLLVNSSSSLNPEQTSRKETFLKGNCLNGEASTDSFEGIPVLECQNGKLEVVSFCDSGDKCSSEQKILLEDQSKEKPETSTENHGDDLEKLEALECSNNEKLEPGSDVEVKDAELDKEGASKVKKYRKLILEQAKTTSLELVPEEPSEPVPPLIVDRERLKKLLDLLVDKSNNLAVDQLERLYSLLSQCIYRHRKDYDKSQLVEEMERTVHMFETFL
Source text: as §1

ATAD2A = target: T3, ATAD2A (Homo sapiens, UniProt Q6PL18); assay: Epigenetic panel (BPS Bioscience); assay type: binding
T3 construct: purchased BPS Bioscience; Eurofins (HDAC4, 5, 7-11)
T3 sequence (Q6PL18 whole entry): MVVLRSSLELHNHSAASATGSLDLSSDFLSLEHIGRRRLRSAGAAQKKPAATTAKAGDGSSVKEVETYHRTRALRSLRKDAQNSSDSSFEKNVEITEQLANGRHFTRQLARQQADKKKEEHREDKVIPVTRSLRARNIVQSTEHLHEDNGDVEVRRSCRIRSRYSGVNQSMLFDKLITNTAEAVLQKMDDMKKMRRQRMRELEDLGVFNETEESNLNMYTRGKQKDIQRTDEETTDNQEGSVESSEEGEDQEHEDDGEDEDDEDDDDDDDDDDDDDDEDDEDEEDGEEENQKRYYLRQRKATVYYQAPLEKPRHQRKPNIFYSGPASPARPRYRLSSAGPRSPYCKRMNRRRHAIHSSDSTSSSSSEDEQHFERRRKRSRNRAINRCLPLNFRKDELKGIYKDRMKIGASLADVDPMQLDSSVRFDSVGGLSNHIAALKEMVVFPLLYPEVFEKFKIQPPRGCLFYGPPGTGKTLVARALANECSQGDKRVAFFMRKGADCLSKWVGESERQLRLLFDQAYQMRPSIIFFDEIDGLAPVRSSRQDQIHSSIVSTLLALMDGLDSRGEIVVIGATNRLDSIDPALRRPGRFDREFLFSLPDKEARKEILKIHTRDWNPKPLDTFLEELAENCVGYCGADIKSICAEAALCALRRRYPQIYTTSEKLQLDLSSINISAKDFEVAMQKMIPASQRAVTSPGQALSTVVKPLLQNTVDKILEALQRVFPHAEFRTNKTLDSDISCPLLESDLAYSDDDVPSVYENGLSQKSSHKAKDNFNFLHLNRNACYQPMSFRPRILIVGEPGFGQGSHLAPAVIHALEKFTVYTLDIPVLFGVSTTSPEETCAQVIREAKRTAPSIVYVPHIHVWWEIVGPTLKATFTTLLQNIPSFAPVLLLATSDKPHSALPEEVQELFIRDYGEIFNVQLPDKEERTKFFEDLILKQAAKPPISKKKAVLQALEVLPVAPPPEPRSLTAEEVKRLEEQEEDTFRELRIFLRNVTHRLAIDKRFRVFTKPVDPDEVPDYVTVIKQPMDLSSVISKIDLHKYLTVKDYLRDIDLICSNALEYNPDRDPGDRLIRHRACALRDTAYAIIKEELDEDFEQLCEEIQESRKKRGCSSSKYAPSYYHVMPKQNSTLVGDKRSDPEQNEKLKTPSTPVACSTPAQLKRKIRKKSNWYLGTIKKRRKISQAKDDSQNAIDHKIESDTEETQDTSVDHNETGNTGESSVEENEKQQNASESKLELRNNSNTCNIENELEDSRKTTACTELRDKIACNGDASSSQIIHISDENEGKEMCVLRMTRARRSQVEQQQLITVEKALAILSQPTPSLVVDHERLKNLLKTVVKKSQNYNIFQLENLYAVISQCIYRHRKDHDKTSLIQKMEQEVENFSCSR
Source text: as §1

CREBBP = target: T4, CREBBP (Homo sapiens, UniProt Q92793); assay: Epigenetic panel (BPS Bioscience); assay type: binding
T4 construct: purchased BPS Bioscience; Eurofins (HDAC4, 5, 7-11)
Source text: as §1

BRD3 (BD1+BD2) = target: T5, BRD3 (BD1+BD2) (Homo sapiens, UniProt Q15059); assay: Epigenetic panel (BPS Bioscience); assay type: binding
T5 construct: purchased BPS Bioscience; Eurofins (HDAC4, 5, 7-11)
T5 sequence (Q15059 29-419 limits assumed): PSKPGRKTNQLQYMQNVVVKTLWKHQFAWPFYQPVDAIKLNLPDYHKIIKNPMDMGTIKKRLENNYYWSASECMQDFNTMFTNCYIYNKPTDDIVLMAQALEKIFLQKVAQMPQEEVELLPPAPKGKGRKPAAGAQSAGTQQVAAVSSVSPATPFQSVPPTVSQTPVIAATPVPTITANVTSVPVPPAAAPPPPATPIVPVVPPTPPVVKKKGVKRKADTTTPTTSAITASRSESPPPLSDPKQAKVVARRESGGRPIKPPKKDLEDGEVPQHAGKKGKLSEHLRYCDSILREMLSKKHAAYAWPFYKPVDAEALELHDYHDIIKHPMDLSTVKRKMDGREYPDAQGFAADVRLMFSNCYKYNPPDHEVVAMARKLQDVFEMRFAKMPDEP
Source text: as §1

TAF1L (BD2) = target: T6, TAF1L (BD2) (Homo sapiens, UniProt Q8IZX4); assay: Epigenetic panel (BPS Bioscience); assay type: binding
T6 construct: purchased BPS Bioscience; Eurofins (HDAC4, 5, 7-11)
T6 sequence (Q8IZX4 1523-1654 limits assumed): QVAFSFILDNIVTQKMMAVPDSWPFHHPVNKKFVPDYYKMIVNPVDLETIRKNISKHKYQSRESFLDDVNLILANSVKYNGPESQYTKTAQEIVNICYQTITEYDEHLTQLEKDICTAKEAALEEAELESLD
Source text: as §1

BRD4 (BD1) = target: T7, BRD4 (BD1) (Homo sapiens, UniProt O60885); assay: Epigenetic panel (BPS Bioscience); assay type: binding
T7 construct: purchased BPS Bioscience; Eurofins (HDAC4, 5, 7-11)
Source text: as §1

[1] = test system: H3Ac and H3K27me3 levels in HL-60, ML-2, MV4-11 and MOLM-13 cell lines; assay: Western blot of histone marks; assay type: cell-based, human; conditions: HL-60, 270 nM CM-444 or 300 nM CM-1758, 48 h
Protocol: Histone extraction was performed with a Histone extraction Kit (Abcam, Cambridge, UK) following the manufacturer’s instructions. The histone concentration in the extract was measured using the dye-binding assay of Bradford. A 10 µg amount of histone was separated on 15% sodium dodecyl sulfate-polyacrylamide gel electrophoresis and transferred to a nitrocellulose membrane. The membrane, after being blocked with Tropix I-block blocking reagent (Cat No AI300, Tropix) in PBS with 0.1% Tween 20 and 0.02 NaN3 was incubated with the primary antibody against Acetyl H3 (rabbit polyclonal antibody, Cat No 06-599, Millipore) diluted 1:50,000 o/n at 4 °C or against H3K27 me3 (mouse monoclonal antibody to histone H3 trimethyl K27, Cat No ab6002, Abcam) diluted 1:2000 in bovine serum albumin o/n at 4 °C and then with alkaline phosphatase-conjugated secondary antibodies. […] Total H3 was used as a loading control (diluted 1:50,000 o/n at 4 °C or for 1 h at room temperature) (Anti-Histone H3, CT, pan, rabbit polyclonal, Cat No 07-690, Millipore). Images have been cropped for presentation.

MOLM-13 = assay: Differentiation-apoptosis assay, CD11b / annexin-V / Sytox Green / myeloid markers flow cytometry; assay type: cell-based, human; set-up: Cell viability (%): concentration or dose not given beside the values; CD11b levels: unit not given here
Protocol: (§2) Next, the cells were washed twice with phosphate-buffered saline (PBS) and resuspended in 1X Binding Buffer at a concentration of 1 × 10^6 cells/mL. An 8-µL aliquot of APC-CD11b (BD Pharmingen, Franklin Lakes, NJ, USA) and 1 µL of FITC annexin-V (AV) (BD Pharmingen, Franklin Lakes, NJ, USA) antibodies were added and incubated for 15 min at room temperature in the dark. Finally, after the addition of 400 µL of 1X Binding Buffer to each tube, samples were collected on a BD FACSCanto flow cytometer (Becton Dickinson, San Jose, CA, USA) and analyzed using FlowJo software.
(§3) For the rest of experiments, the mix of antibodies (2 µL of BV786-CD13, Cat No, 744748 BD; 1 µL of diluted 1:10 antibody of PB-HLADR, Cat No 307633, Biolegend; 5 µL of APCH7-CD14, Cat No 641394, BD) was added to 10 µL of Brilliant Stain Buffer Plus (Becton Dickinson, San Jose, CA, USA). Then, 1 million cells (volume of 250 µL) were added and incubated for 30 min at room temperature in darkness. After 10 min incubation at room temperature with 2 mL of FACSLysing 1X, cells were centrifuged at 540 g for 5 min and washed twice with FACSBuffer. Finally, after centrifugation at 540 g for 5 min cells were resuspended in FACSBuffer.

MV4-11 = assay: as above; assay type: cell-based, human; set-up: Cell viability (%): concentration or dose not given beside the values; CD11b levels: unit not given here
Protocol: as §2, §3

[2] = MOLM-13, 48 h treatment, replicates 1-3 (Suppl. Fig. 5A)
[3] = MOLM-13, daily treatment, time 0 days
[4] = MOLM-13, daily treatment, time 2 days
[5] = MOLM-13, daily treatment, time 4 days
[6] = MOLM-13, daily treatment, time 6 days
[7] = MOLM-13, daily treatment, time 8 days
[8] = MV4-11, 48 h treatment, replicates 1-3 (Suppl. Fig. 5A)
[9] = MV4-11, daily treatment, time 0 days
[10] = MV4-11, daily treatment, time 2 days
[11] = MV4-11, daily treatment, time 4 days
[12] = MV4-11, daily treatment, time 6 days

T1 sequence (Q15059 306-419 limits assumed): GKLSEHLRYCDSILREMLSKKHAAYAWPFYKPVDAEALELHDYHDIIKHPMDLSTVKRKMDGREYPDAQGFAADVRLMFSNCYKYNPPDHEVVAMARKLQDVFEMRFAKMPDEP

## COc1cc2nc(-c3cc(C)oc3C)cc(NCC3CCN(c4ncc(C(=O)NO)cn4)CC3)c2cc1OC [CM-1758, 2-[4-[[[2-(2,5-dimethyl-3-furyl)-6,7-dimethoxy-4-quinolyl]amino]methyl] -1-piperidyl]pyrimidine-5-carbohydroxamic acid]
BRD3 (BD2)
  inhibition at 10 µM: 0%
ATAD2B
  inhibition at 10 µM: 13%
ATAD2A
  inhibition at 10 µM: 0%
CREBBP
  inhibition at 10 µM: 6%
BRD3 (BD1+BD2)
  inhibition at 10 µM: 29%
TAF1L (BD2)
  inhibition at 10 µM: 0%
BRD4 (BD1)
  inhibition at 10 µM: 0%
[1]
  H3Ac level (western blot): significant increase in H3Ac
  H3K27me3 level (western blot): no changes in H3K27me3
MOLM-13; MOLM-13, 48 h
  CD11b (%): 93.0%
  CD13 (%): 54.8%
  CD14 (%): 35.6%
  HLA-DR (%): 27.9%
MOLM-13; [2]
  CD11b (%): 93.5% and 87.6% and 86.0%
  Cell viability (%): 71.1% and 73.4% and 72.7%
MOLM-13; MOLM-13, after 6–8 days of treatment
  differentiation level (CD11b): ~90%
MOLM-13; MOLM-13, daily treatment for 48 h, replicates 1-3 (Suppl. Fig. 9A)
  CD11b levels: 61.5 and 58.4 and 65.3
MOLM-13; [3]
  Annexin-V (%): 4.46% and 6.55% and 4.89%
  CD11b (%): 6.62% and 4.5% and 6.9%
MOLM-13; [4]
  Annexin-V (%): 11.4% and 10.2% and 9.87%
  CD11b (%): 73% and 68.5% and 65.7%
MOLM-13; [5]
  Annexin-V (%): 23.3% and 19.7% and 17.2%
  CD11b (%): 83.3% and 80.2% and 78.3%
MOLM-13; [6]
  Annexin-V (%): 23.9% and 24.2% and 20.6%
  CD11b (%): 89.9% and 85.1% and 83.1%
MOLM-13; [7]
  Annexin-V (%): 29.4% and 27.5% and 25.4%
  CD11b (%): 91.9% and 90.1% and 92.4%
MOLM-13; MOLM-13 cell line, replicates 1-3 (Figure 2A)
  CD11b (%): 70.54% and 69.2% and 63%
MV4-11; MV4-11, 48 h
  CD11b (%): 57.9%
  CD13 (%): 98.1%
  CD14 (%): 56.2%
  HLA-DR (%): 38.4%
MV4-11; [8]
  CD11b (%): 47.1% and 53.2% and 55.4%
  Cell viability (%): 80.4% and 85.9% and 86.75%
MV4-11; MV4-11, after 6–8 days of treatment
  differentiation level (CD11b): ~90%
MV4-11; MV4-11, daily treatment for 48 h, replicates 1-3 (Suppl. Fig. 9A)
  CD11b levels: 37.8 and 40.7 and 46.2
MV4-11; [9]
  Annexin-V (%): 5.32% and 4.14% and 5.2%
  CD11b (%): 11.1% and 6.62% and 5.25%
MV4-11; [10]
  Annexin-V (%): 7.65% and 8.98% and 10.24%
  CD11b (%): 28.2% and 20.4% and 30.4%
MV4-11; [11]
  Annexin-V (%): 26.3% and 27.9% and 28.6%
  CD11b (%): 44.3% and 46.2% and 46.6%
MV4-11; [12]
  Annexin-V (%): 19.6% and 21.2% and 20.7%
  CD11b (%): 76% and 75.1% and 74.8%
MV4-11; MV4-11 cell line, replicates 1-3 (Figure 2A)
  CD11b (%): 38.46% and 40.4% and 45.7%

## O=C(CCCCCCC(=O)Nc1ccccc1)NO [Vorinostat, reference compound]
MOLM-13; [2]
  CD11b (%): 37.1% and 43.8% and 41.2%
  Cell viability (%): 69.1% and 74.5% and 73.9%
MV4-11; [8]
  CD11b (%): 15.2% and 20.7% and 19.4%
  Cell viability (%): 86.1% and 89% and 91%
